In patent publication US12492188B2, “1H-benzo[D]imidazole derivatives as TLR9 inhibitors for the treatment of fibrosis” (BRISTOL-MYERS SQUIBB COMPANY, priority 2020, dated 2025) one finds IC50 data, which are given here for 8 compounds.

Where two headings read alike, the source gives them in different places.

What all share (format): cell-based
For one test, the target named is T1, human TLR7 (Homo sapiens, UniProt Q9NYK1).
T1 construct: host or cells: HEK-Blue cells (HEK293-derived reporter line)
T1 sequence (Q9NYK1 27-1049): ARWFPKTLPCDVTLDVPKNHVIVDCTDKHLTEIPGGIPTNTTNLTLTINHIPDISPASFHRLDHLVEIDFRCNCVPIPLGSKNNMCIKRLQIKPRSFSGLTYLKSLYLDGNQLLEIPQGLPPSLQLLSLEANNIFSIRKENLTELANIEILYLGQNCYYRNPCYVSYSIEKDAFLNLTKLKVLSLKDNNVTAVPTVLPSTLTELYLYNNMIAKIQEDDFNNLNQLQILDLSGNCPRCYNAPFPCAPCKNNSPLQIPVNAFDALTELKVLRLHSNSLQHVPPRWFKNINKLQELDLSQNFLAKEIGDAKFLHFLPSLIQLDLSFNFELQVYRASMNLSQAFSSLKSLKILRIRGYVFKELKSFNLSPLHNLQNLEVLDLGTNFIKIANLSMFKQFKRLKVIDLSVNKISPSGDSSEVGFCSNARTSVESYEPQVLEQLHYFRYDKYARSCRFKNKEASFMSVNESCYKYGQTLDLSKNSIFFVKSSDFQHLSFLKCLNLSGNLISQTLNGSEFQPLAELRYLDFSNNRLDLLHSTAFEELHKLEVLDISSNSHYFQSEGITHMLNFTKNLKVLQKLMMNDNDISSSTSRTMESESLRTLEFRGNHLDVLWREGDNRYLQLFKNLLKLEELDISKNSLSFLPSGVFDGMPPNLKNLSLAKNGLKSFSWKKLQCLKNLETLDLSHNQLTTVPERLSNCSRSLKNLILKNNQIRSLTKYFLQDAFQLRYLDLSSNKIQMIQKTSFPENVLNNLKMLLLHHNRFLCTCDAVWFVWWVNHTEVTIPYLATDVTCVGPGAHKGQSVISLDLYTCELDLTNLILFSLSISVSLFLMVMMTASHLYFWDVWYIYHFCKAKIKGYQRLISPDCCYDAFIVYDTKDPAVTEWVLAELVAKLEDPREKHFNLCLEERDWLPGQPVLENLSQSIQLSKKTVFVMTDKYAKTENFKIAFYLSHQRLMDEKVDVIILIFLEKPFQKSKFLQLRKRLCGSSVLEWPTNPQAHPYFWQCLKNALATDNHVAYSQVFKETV
Kind of test: TLR7 inhibition reporter assay (HEK-Blue cells, secreted embryonic alkaline phosphatase reporter). As to conditions: HEK-Blue cells overexpressing human TLR7, stimulated with gardiquimod 7.5 μM; read-out: TLR 7 IC50. How it is done:
(§1) TLR7/8/9 Inhibition Reporter Assays
(§2) HEK-Blue™-cells (Invivogen) overexpressing human TLR7, TLR8 or TLR9 receptors were used for screening inhibitors of these receptors using an inducible SLAP (secreted embryonic alkaline phosphatase) reporter gene under the control of the […] minimal promoter fused to five NF-κB and AP-1-binding sites. Briefly, cells are seeded into Greiner 384 well plates (15000 cells per well for TLR7, 20,000 for TLR8 and 25,000 for TLR9) and then treated with test compounds in DMSO to yield a final dose response concentration range of 0.05 nM-50 μM. After a 30 minute compound pre-treatment at room temperature, the cells are then stimulated with a TLR7 ligand (gardiquimod at a final concentration of 7.5 μM), TLR8 ligand (R848 at a final concentration of 15.9 μM) or TLR9 ligand (ODN2006 at a final concentration of 5 nM) to activate NF-κB and AP-1 which induce the production of SLAP. After a 22 hour incubation at 37° C., […], SLAP levels are determined with the addition of HEK-Blue™ Detection reagent (Invivogen), a cell culture medium that allows for detection of SLAP, according to manufacturer's specifications. The percent inhibition is determined as the […] in the HEK-Blue signal present in wells treated with agonist plus DMSO alone compared to wells treated with a known inhibitor.

The next test has as its target T2, human TLR9 (Homo sapiens, UniProt Q9NR96).
T2 construct: host or cells: HEK-Blue cells (HEK293-derived reporter line)
T2 sequence (Q9NR96 26-1032): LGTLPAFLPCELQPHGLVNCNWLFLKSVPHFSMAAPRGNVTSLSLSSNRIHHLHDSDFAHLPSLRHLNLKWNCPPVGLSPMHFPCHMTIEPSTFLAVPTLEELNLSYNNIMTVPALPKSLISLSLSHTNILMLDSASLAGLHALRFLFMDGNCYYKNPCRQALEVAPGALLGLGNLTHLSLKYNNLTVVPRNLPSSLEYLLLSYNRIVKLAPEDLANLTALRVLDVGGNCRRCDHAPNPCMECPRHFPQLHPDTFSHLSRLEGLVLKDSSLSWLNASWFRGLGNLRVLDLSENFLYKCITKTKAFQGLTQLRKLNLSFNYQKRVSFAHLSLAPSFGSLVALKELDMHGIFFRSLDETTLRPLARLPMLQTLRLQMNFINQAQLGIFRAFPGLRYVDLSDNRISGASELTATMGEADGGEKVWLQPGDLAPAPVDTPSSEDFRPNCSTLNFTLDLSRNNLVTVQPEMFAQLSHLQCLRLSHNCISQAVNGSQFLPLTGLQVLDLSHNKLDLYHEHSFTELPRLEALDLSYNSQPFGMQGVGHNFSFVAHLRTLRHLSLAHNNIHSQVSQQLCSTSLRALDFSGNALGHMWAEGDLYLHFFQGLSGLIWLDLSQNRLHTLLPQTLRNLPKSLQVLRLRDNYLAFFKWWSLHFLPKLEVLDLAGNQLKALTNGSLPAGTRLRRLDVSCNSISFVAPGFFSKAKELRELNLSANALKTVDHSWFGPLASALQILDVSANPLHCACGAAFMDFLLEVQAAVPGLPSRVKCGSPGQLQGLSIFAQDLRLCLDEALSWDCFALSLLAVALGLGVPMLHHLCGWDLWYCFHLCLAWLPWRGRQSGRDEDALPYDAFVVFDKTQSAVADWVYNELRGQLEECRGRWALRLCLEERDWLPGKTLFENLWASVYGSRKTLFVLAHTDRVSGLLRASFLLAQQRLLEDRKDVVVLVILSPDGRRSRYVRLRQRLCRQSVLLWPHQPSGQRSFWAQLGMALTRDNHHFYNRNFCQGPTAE
Briefly: TLR9 inhibition reporter assay (HEK-Blue cells, secreted embryonic alkaline phosphatase reporter). The conditions noted are these: HEK-Blue cells overexpressing human TLR9, stimulated with ODN2006 5 nM. The procedure, abridged: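 Read-out is SEAP colour from HEK-Blue Detection medium after 22 h at 37 °C, converted to percent inhibition between agonist-plus-DMSO and reference-inhibitor wells. Receptor-overexpressing HEK-Blue cells received compound over 0.05 nM–50 μM for 30 min before agonist: gardiquimod 7.5 μM for TLR7, R848 15.9 μM for TLR8, ODN2006 5 nM for TLR9.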

In a further test the target is T3, human TLR8 (Homo sapiens, UniProt Q9NR97).
T3 construct: host or cells: HEK-Blue cells (HEK293-derived reporter line)
T3 sequence (Q9NR97 27-1041): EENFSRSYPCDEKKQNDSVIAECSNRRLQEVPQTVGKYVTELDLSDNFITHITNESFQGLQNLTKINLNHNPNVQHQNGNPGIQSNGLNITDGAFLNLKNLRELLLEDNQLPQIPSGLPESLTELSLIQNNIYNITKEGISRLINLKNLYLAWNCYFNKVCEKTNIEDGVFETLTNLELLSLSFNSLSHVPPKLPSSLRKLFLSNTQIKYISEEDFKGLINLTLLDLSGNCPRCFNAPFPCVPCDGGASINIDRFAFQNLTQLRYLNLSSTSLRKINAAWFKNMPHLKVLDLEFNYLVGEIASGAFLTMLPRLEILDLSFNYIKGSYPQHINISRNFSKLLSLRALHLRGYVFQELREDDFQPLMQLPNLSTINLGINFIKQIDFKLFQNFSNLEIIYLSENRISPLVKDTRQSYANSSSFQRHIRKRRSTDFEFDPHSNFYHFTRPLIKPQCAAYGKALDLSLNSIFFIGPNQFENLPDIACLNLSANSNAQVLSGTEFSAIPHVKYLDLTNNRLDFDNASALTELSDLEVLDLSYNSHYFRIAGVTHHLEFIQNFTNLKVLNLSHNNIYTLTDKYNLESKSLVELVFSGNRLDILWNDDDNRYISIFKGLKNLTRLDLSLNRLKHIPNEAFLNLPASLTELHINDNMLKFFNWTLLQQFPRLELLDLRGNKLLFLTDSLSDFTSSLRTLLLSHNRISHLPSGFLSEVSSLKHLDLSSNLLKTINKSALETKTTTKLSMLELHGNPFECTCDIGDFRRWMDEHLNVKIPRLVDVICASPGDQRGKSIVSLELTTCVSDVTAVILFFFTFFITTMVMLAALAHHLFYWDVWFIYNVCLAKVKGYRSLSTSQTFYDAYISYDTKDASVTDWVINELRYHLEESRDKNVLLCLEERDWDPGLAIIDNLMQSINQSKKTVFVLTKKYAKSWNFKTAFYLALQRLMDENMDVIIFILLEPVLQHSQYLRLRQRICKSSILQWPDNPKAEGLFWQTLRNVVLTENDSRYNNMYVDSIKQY
Briefly: TLR8 inhibition reporter assay (HEK-Blue cells, secreted embryonic alkaline phosphatase reporter). As to conditions: HEK-Blue cells overexpressing human TLR8, stimulated with R848 15.9 μM; read-out: TLR 8 IC50. As for the experimental part:
as §1, §2

Setting [1] is: 22 hour incubation, reporter readout.

In the case of `COc1ccc(-c2nc3c(C)cc(C4CCN(C5CC6CCC(C5)N6CC(C)C)CC4)cc3n2C)cc1OC` (single isomer, unassigned) [Example 18, 2-(3,4-dimethoxyphenyl)-6-(1-(8-isobutyl-8-azabicyclo[3.2.1]octan-3-yl)piperidin-4-yl)-1,4-dimethyl-1H-benzo[d]imidazole], the half-maximal inhibitory concentration (IC50) (commonly the midpoint of a concentration-inhibition curve) at human TLR7 is 7700 nM; against human TLR9 (setting [1]) it was 29 nM; on human TLR8, over 50000 nM.

On to `COc1ccc(-c2nc3c(C)cc(C4CCN(C5CC6CCC(C5)N6CC(C)C)CC4)cc3[nH]2)cc1OC` (single isomer, unassigned) [Example 19, 2-(3,4-dimethoxyphenyl)-6-(1-(8-isobutyl-8-azabicyclo[3.2.1]octan-3-yl)piperidin-4-yl)-4-methyl-1H-benzo[d]imidazole], for which the IC50 was 2500 nM on human TLR7, 28 nM against human TLR9 (setting [1]) and over 50000 nM on human TLR8.

On to `COc1ccc(-c2nc3c(C)cc(C4CCN(C5CC6CCC(C5)N6CC(C)C)CC4)cc3[nH]2)cc1OC` (single isomer, unassigned) [Example 20, 2-(3,4-dimethoxyphenyl)-6-(1-(8-isobutyl-8-azabicyclo[3.2.1]octan-3-yl)piperidin-4-yl)-4-methyl-1H-benzo[d]imidazole], for which the 50% inhibitory concentration (IC50) is 4100 nM on human TLR7, 69 nM at human TLR9 (setting [1]) and over 50000 nM on human TLR8.

`Cc1cc(C2CCN(C3CC4CCC(C3)N4C(C)C)CC2)cc2c1nc(-c1ccc(S(C)(=O)=O)cc1)n2C` (single isomer, unassigned) [Example 84, 6-(1-(8-isopropyl-8-azabicyclo[3.2.1]octan-3-yl)piperidin-4-yl)-1,4-dimethyl-2-(4-(methylsulfonyl)phenyl)-1H-benzo[d]imidazole]: the half-inhibitory concentration (IC50) on human TLR7 was 18600 nM; on human TLR9 (setting [1]) it was 72 nM; on human TLR8, over 25000 nM.

As for `Cc1cc(C2CCN(C3CC4CCC(C3)N4C(C)C)CC2)cc2c1nc(-c1ccc(S(C)(=O)=O)cc1)n2C` (single isomer, unassigned) [Example 85, 6-(1-(8-isopropyl-8-azabicyclo[3.2.1]octan-3-yl)piperidin-4-yl)-1,4-dimethyl-2-(4-(methylsulfonyl)phenyl)-1H-benzo[d]imidazole], the IC50 was 5700 nM on human TLR7, 110 nM against human TLR9 (setting [1]), 106 nM on human TLR9 (read-out: TLR 9 IC50) and over 25000 nM on human TLR8.

As for `CC(C)N1C2CCC1CC(N1CCC(c3ccc4c(nc(-c5ccc(S(C)(=O)=O)cc5)n4C)c3F)CC1)C2` (single isomer, unassigned) [Example 89, 4-fluoro-5-(1-(8-isopropyl-8-azabicyclo[3.2.1]octan-3-yl)piperidin-4-yl)-1-methyl-2-(4-(methylsulfonyl)phenyl)-1H-benzo[d]imidazole], the half-maximal inhibitory concentration (IC50) on human TLR7 is over 50000 nM; on human TLR9 (setting [1]), 160 nM; on human TLR9 (read-out: TLR 9 IC50), 162 nM; at human TLR8, over 50000 nM.

For `CC(C)N1C2CCC1CC(N1CCC(c3ccc4c(nc(-c5ccc(S(C)(=O)=O)cc5)n4C)c3F)CC1)C2` (single isomer, unassigned) [Example 90, 4-fluoro-5-(1-(8-isopropyl-8-azabicyclo[3.2.1]octan-3-yl)piperidin-4-yl)-1-methyl-2-(4-(methylsulfonyl)phenyl)-1H-benzo[d]imidazole], the IC50 on human TLR7 is over 50000 nM; against human TLR9 (setting [1]) it was 230 nM; on human TLR9 (read-out: TLR 9 IC50), 231 nM; at human TLR8, over 50000 nM.

With `CC(C)N1C2CCC1CC(N1CCC(c3cc(F)c4c(c3)nc(-c3ccc(S(C)(=O)=O)cc3)n4C)CC1)C2` (single isomer, unassigned) [Example 92, 7-fluoro-5-(1-(8-isopropyl-8-azabicyclo[3.2.1]octan-3-yl)piperidin-4-yl)-1-methyl-2-(4-(methylsulfonyl)phenyl)-1H-benzo[d]imidazole], the IC50 was over 50000 nM on human TLR7, 110 nM against human TLR9 (setting [1]), 105 nM on human TLR9 (read-out: TLR 9 IC50) and over 50000 nM at human TLR8.
